Experimental data as given in patent US10226503B2, “Plant extract composition for reducing topical fat and promoting weight loss as well as applications thereof” (Caliway Biopharmaceuticals Co., Ltd., priority 2014, dated 2019).

Experiments:
[1] = tested on: mature adipocytes (3T3-L1); assay: Adipocyte apoptosis assay (V), Annexin V/PI flow cytometry; format: cell-based; conditions: 50 ppm, 24 hours, DMSO control 5.14±2.05%
Method: 3T3-L1 cells were incubated in 12-well plates with 1×10^5 cells per well. The medium was replaced with a DMI medium containing 5 μg/ml of insulin, 0.1 μM of dexamethasone, and 0.5 mM of 3-isobutyl-1-methylxanthine (referred as IBMX) on the third day of incubation. After seven days incubation in the medium containing differentiation agent and waiting until the adipocyte cells matures, with the exception of the DMSO solvent control group, 50 ppm of curcumin, resveratrol, composition UL003C6, composition UL003C5, composition UL003C4, composition UL003C3, composition UL003C2, composition UL003C1, composition UL003B, composition UL003R1, composition UL003R2, and composition UL003R3 were added to different wells respectively; there are 13 groups in the experiment, and four replicates were performed in each group.
Please refer to Table 1, which presents the experimental matters and their final concentration in each group. […]
After administration process and 24 hours incubation, cells were collected and Annexin V/PI stain was performed. Cell apoptosis was analyzed by flow cytometry, wherein Annexin V−PI− cells represented the number of the survival mature adipocytes, and Annexin V+PI+ cells represented the number of the apoptotic mature adipocytes; this method is used to compare the apoptosis degree induced by the experimental matters in each group.

[2] = tested on: lower inguinal subcutaneous fat; assay: Embodiment 10: resveratrol:curcumin ratio effect (with ELP) on subcutaneous fat of high-fat diet rats; format: in vivo, Sprague-Dawley rats; conditions: 5 mg/mL with ELP, injected as in Embodiment 9, relative to HFD group 100±22.3%
From the text: The bilateral lower inguinal subcutaneous fat pads of rats were dissected and weighed, and the weights of the bilateral lower inguinal subcutaneous fat pads were summed to calculate the amount of lower inguinal subcutaneous fat. […] The data were presented as mean±SD and analyzed by one-way ANOVA. Statistical results were shown as symbols or letters. Different symbols or letters indicates statistically significant difference (p<0.05), and identical symbols or letters indicates no statistically significant difference (p>0.05).
The preparation of pharmaceutical composition (curcumin solution, resveratrol solution, UL003C solution, UL003R solution, UL005 solution, UL006 solution, UL003C6 solution, or UL003R4 solution) in each group was roughly the same as the experimental procedure in Experiment 9. The only differences were the ratio of resveratrol and curcumin. In this experiment, the guideline of adding all of the ratio of resveratrol and curcumin, the weight of ELP, and the weight of normal saline for injection was shown in Table 1.
In this experiment, the ratios of resveratrol to curcumin in the first group to the eighth group were 0:1, 1:0, 1:19, 9:1, 1:1, 1:30, 1:50, 20:1, respectively, and the final concentrations of resveratrol and curcumin in the pharmaceutical compositions prepared in the first to the eighth group were 5 mg/mL. […]

[3] = Embodiment 10: resveratrol:curcumin ratio effect (with ELP) on body weight gain of high-fat diet rats; format: in vivo, Sprague-Dawley rats; conditions: 5 mg/mL with ELP, relative to HFD group 100.0±25.7%
Method: The body weight of each rat was recorded and defined as the “post-experimental body weight” of each rat. The “total body weight gain” of each rat was obtained by subtracting its “pre-experimental body weight” from its “post-experimental body weight”. The “relative weight gain” was obtained by dividing the total body weight gain of each group by the total body weight gain of the HFD group.
The only differences were the ratio of resveratrol and curcumin.
In this experiment, the ratios of resveratrol to curcumin in the first group to the eighth group were 0:1, 1:0, 1:19, 9:1, 1:1, 1:30, 1:50, 20:1, respectively, and the final concentrations of resveratrol and curcumin in the pharmaceutical compositions prepared in the first to the eighth group were 5 mg/mL. That is, the preparation method of pharmaceutical composition in the first to the eighth group, the weight ratios of resveratrol to curcumin were 0:1, 1:0, 1:19, 9:1, 1:1, 1:30, 1:50, 20:1, respectively, and the final concentrations of resveratrol and curcumin in the prepared pharmaceutical compositions were 5 mg/mL. Wherein, when the final concentration of drug was presented as mg/mL, it indicated the number of milligrams of resveratrol and curcumin per milliliter of pharmaceutical composition.

[4] = tested on: adipose tissue in the inferior inguinal region; assay: Embodiment 10: observation of the injected inferior inguinal region after dissection; format: in vivo, Sprague-Dawley rats; conditions: FIG. 11A-F
From the text: There were 9 groups in this experiment, that is, the HFD group, the curcumin group, the resveratrol group, the UL003C group, the UL003R group, the UL005 group, the UL006 group, the UL003C6 group, and the UL003R4 group. The rats were fed and injected in the same manner described in Embodiment 9.

[5] = tested on: mature adipocytes (3T3-L1); assay: Adipocyte apoptosis assay (IV), Annexin V/PI flow cytometry; format: cell-based; conditions: 100 ppm, 24 hours
Method: In this embodiment, the effect of composition UL003C in the present invention on mature adipocytes apoptosis promotion was compared with that of the well-known sodium deoxycholate. In this embodiment, 3T3-L1 cells were incubated in 12-well plates with 1×10^5 cells per well. The medium was replaced with an incubation fluid containing 5 μg/ml of insulin differentiation agent, 1 μM of dexamethasone, and 0.5 mM of 3-isobutyl-1-methylxanthine on the fourth day of incubation. After four days incubation in the incubation fluid containing differentiation agent and waiting until the adipocyte cells matures, with the exception of the DMSO solvent control group, 100 ppm of composition UL003C and sodium deoxycholate were added to different wells respectively; there are three groups in the experiment, and three replicates were performed in each group. After administration process and 24 hours incubation, cells were collected and Annexin V/PI stain was performed. Cell apoptosis was analyzed by flow cytometry, wherein Annexin V−PI− cells represented the number of the survival mature adipocytes, and Annexin V+PI+ cells represented the number of the apoptotic mature adipocytes; this method is used to compare the apoptosis degree induced by the experimental matters in the two groups.

Row | Compound | percentage of apoptotic cells [1] [%] | relative weight of the lower inguinal subcutaneous fat [2] [%] | relative weight gain [3] [%] | ulcer / curcumin precipitation in the inferior inguinal region (injection site) [4] | mature adipocytes apoptosis compared to DMSO solvent control group [5]
1 | COc1cc(/C=C/C(=O)CC(=O)/C=C/c2ccc(O)c(OC)c2)ccc1O [curcumin] | 15.43±4.31 | 90.4±12.6 | 103.6±7.2 | curcumin precipitation was observed | –
2 | Oc1ccc(C=Cc2cc(O)cc(O)c2)cc1 [resveratrol] | 8.48±3.23 | 85.7±5.1 | 91.7±11.4 | ulcer | –
3 | sodium deoxycholate | – | – | – | – | no significant difference
